Source: US20230234906A1, “Use of 2-pentanone and specific receptor thereof in manufacture of products regulating cell functions” (Taihe Hospital, Hubei University of Medicine, priority 2022, published 2023)

Columns and labels:
[1] = Verification of the arrival of 2-pentanone in cerebrospinal fluid (HPLC-MS of blood and cerebrospinal fluid after inhalation); format: in vivo, rats
Description: The specific method for detecting the arrival of 2-pentanone in cerebrospinal fluid in this test example included the following: rats were given 2-pentanone for 3 min, then blood and cerebrospinal fluid were drawn, immediately sealed and centrifuged at high speed to pellet red blood cells. The obtained cerebrospinal fluid and blood samples were subjected to HPLC-MS detection. Prior to detection, 100 μL of samples was taken and added with 400 μL of acetonitrile. The protein was separated by vortex and centrifuged at 14000 rpm for 10 min, and 100 μL of supernatant was used for HPLC-MS detection. […] It was confirmed by high performance liquid chromatography-mass spectrometry (HPLC-MS) that 2-pentanone could reach cerebrospinal fluid through blood rapidly (3 min) after inhaled by animals, and the concentration in cerebrospinal fluid decreased rapidly within 3-5 min after the inhalation was stopped.

[2] = target: T1, specific receptor Or35a and the specific receptor Or83b (Drosophila melanogaster, UniProt Q9V3Q2+Q9VNB5); assay: Calcium imaging experiment in mouse brain slices expressing the specific receptor of 2-pentanone; format: cell-based; details: addition of 2-pentanone; 150 μm brain slices of C57 mice injected with Or35a/Or83b overexpression virus and calcium imaging virus; confocal microscope; FIG. 4A
T1 construct: P2A peptide (self-cleaving; remnant stays on the C-terminus of Or35a) (C); remnant stays on the C-terminus of Or83b) (C); expressed in transfected cells; acute brain slices
T1 sequence (Q9V3Q2 1-409): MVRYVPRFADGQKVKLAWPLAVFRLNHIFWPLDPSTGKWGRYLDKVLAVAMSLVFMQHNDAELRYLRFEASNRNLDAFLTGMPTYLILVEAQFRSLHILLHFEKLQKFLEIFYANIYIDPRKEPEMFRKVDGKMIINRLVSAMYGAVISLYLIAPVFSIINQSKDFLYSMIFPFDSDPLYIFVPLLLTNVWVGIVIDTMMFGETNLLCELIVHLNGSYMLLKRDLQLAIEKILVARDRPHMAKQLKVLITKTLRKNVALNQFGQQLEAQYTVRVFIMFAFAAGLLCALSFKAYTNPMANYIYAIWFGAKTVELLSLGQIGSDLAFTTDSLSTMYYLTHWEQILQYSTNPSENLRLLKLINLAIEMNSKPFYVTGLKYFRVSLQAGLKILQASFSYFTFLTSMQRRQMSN
T1 sequence (Q9VNB5 1-486): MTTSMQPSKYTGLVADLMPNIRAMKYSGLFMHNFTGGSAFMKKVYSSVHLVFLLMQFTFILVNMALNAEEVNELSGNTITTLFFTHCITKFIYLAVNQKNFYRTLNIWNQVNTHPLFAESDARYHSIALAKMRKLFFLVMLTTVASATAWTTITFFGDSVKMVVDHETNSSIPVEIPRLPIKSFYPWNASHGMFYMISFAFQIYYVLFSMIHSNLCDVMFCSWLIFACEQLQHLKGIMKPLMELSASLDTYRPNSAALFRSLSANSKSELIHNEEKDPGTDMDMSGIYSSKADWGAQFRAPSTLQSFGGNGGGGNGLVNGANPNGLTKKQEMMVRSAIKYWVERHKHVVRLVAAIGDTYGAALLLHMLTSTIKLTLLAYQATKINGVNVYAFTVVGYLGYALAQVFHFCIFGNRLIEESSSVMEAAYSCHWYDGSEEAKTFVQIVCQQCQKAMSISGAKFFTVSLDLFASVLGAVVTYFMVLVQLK
Description: 1. Calcium imaging experiment: Adult C57 mice were anesthetized, fixed on a stereotaxic apparatus, and operated to expose the brain surface of the mice (1.5 mm behind the bregma, 1 mm aside, and injection depth of 2 mm). The overexpression virus (1 μl) constructed in Example 1 and the calcium imaging virus (0.5 μl) were simultaneously injected into the mouse brain using a microinjector. After 2 weeks of feeding, the brains of mice were removed. The brain tissues near the injection site were cut into 150 μm tissue slices using a vibrating microtome and placed in artificial cerebrospinal fluid with a mixture of 5% CO2 and 95% O2, and calcium imaging experiment was performed using a confocal microscope.

[3] = target: T1, specific receptor Or35a and the specific receptor Or83b; assay: Patch clamp experiment (whole-cell recordings) in neurons of mouse brain slices expressing the specific receptor of 2-pentanone; format: cell-based; details: addition of 2-pentanone, 300 μm brain slices of C57 mice injected with Or35a/Or83b overexpression virus, FIG. 4B
Description: 2. Patch clamp experiment: Adult C57 mice were anesthetized, fixed on a stereotaxic apparatus, and operated to expose the brain surface of the mice (1.5 mm behind the bregma, 1 mm aside, and injection depth of 2 mm). The overexpression virus (1 μl) constructed in Example 1 was injected into the mouse brain using a microinjector. After 2 weeks of feeding, the brains of mice were removed. The brain tissues at and near the injection site were cut into 300 μm tissue slices using a vibrating microtome and placed in artificial cerebrospinal fluid with a mixture of 5% CO2 and 95% 02, and after 1 h of incubation, the patch clamp experiment was performed. Using an Axon 700B amplifier, under infrared visualization, neurons with smooth surfaces and clear contours were selected for sealing, and whole-cell recordings were performed.

## CCCC(C)=O [2-pentanone]
[1]; rats given 2-pentanone for 3 min by inhalation, HPLC-MS of cerebrospinal fluid
  time to reach cerebrospinal fluid through blood after inhalation: 3 min
[1]; rats, after inhalation was stopped, HPLC-MS
  time within which the concentration in cerebrospinal fluid decreased rapidly after the inhalation was stopped: 3 to 5 min
[2]
  intracellular calcium ion concentration: significantly increased
[3]
  neuronal firing rate: significantly increased
